In article PMC6683083, “Lupin Peptide T9 (GQEQSHQDEGVIVR) Modulates the Mutant PCSK9^D374Y Pathway: in vitro Characterization of its Dual Hypocholesterolemic Behavior” (Nutrients, 2019):
“Also recorded” adds a separate entry of the source.

Assays:
HMGCoAR = biological target: T1, HMGCoAR (Homo sapiens, UniProt P04035); assay: In vitro HMGCoAR activity assay (Sigma kit); format: biochemical; settings: 10^−5 to 10^−3 M; 37 °C; NADPH oxidation, absorbance at 340 nm, 0 and 10 min; means ± SD
T1 construct: purchased Sigma (Sigma-Aldrich, St. Louis, MO, USA)
T1 sequence (P04035 426-888 limits assumed): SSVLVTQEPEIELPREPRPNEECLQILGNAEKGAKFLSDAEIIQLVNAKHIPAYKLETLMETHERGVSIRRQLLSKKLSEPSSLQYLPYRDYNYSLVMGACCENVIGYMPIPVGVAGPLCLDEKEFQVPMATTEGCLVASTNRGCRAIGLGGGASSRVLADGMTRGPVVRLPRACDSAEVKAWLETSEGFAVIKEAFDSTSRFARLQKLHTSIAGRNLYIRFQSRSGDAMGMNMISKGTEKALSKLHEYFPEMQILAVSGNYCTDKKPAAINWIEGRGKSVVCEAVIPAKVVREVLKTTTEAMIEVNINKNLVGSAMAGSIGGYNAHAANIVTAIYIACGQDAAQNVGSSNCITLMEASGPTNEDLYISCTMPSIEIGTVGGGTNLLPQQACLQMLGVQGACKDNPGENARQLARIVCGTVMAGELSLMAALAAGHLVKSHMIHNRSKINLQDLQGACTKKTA
Experimental: The assay buffer, NADPH, substrate solution, and HMGCoAR were provided in the HMGCoAR Assay Kit (Sigma). The experiments were carried out as previously described. See Supplementary Materials for further details.
In vitro experiments were performed in order to confirm the in silico study according to which T9 was a potential inhibitor of the HMGCoAR activity. Peptide concentrations ranging from 10^−5 to 10^−3 M were tested.
Brief description of material and methods
Dulbecco’s modified Eagle’s medium (DMEM), stable L-glutamine, fetal bovine serum (FBS), phosphate buffered saline (PBS), penicillin/streptomycin, chemiluminescent reagent, and 96-well plates were purchased from Euroclone (Milan, Italy). […]
The assay buffer, NADPH, substrate solution, and HMGCoAR were provided in the HMGCoAR Assay Kit (Sigma). […] The absorbance at time 0 and 10 min were recorded. The HMGCoAR-dependent oxidation of NADPH and the inhibition properties of lupin peptides were measured by the absorbance reduction at 340 nm read by a microplate reader […]
Transfected HepG2 cells (1.5 × 10^5 cells/well) were treated with 100 μM T9 for 24 h. […] After centrifugation at 16,060 g for 15 min at 4 °C, the supernatant was recovered and total proteins were quantified by the Bradford method. […]

[1] = system: human intestinal Caco-2 cells; settings: human intestinal Caco-2 cells / enterocytes; ref [13]; cited from earlier work
Description: A previous study has shown that T9 impairs the protein–protein interaction between mutant D374Y Proprotein Convertase Subtilisin/Kexin 9 (PCSK9^D374Y) and the low-density lipoprotein receptor (LDLR), thus exerting a hypocholesterolemic effect. […] The present ... || GQEQSHQDEGVIVR (T9) is a peptide, deriving from the hydrolysis of β-conglutin with trypsin, showing a pI of 4.3, a hydrophobicity value of 25.97 Kcal mol^−1, and a net charge of −2 at pH 7.0. Its 14-aminoacids sequence comprises a polar negatively charged N-terminal, containing a glutamate residue, and a nonpolar positively charged C-terminal, containing an arginine residue. […] Two previous in silico studies have predicted the potential ...

intestinal peptidases = settings: ref [13]; cited from earlier work
Description: GQEQSHQDEGVIVR (T9) is a peptide, deriving from the hydrolysis of β-conglutin with trypsin, showing a pI of 4.3, a hydrophobicity value of 25.97 Kcal mol^−1, and a net charge of −2 at pH 7.0. Its 14-aminoacids sequence comprises a polar negatively charged N-terminal, containing a glutamate residue, and a nonpolar positively charged C-terminal, containing an arginine residue. […] Two previous in silico studies have predicted the potential ...

CC[C@H](C)[C@H](NC(=O)[C@@H](NC(=O)CNC(=O)[C@H](CCC(=O)O)NC(=O)[C@H](CC(=O)O)NC(=O)[C@H](CCC(N)=O)NC(=O)[C@H](Cc1cnc[nH]1)NC(=O)[C@H](CO)NC(=O)[C@H](CCC(N)=O)NC(=O)[C@H](CCC(=O)O)NC(=O)[C@H](CCC(N)=O)NC(=O)CN)C(C)C)C(=O)N[C@H](C(=O)N[C@@H](CCCNC(=N)N)C(=O)O)C(C)C [T9]
IC50 (HMGCoAR): 99.5 ± 0.56 µM | intestinal absorption (in words) [1]: absorbed in human intestinal Caco-2 cells; also recorded: absorbed by enterocytes | stability to metabolic degradation operated by intestinal peptidases (in words) (intestinal peptidases): stable to the metabolic degradation operated by intestinal peptidases
